What all share (experiment): DTP human tumour cell line panel, 48 h
Test [1] concerns KM12 colon.
The test system of test [2] is MCF7 breast.
In test [3] the test system is MDA-MB-231 breast.
Test [4] concerns NCI-H522 lung.
Test [5] has as its system OVCAR-5 ovarian.
Test [6] has as its system OVCAR-8 ovarian.
For test [7], the system named is RXF 393 renal.
In test [8] the test system is SF-268 CNS.
Test [9] has as its system SK-MEL-28 melanoma.
The subject of test [10] is SN12C renal.
Test [11] relates to U251 CNS.
Test [12] has as its system SK-MEL-2 melanoma.
In test [13] the test system is T-47D breast.

Where “and” joins values, the source holds several entries; their conditions need not be identical. Equal entries are not always repeated.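 Method: 48-hour compound exposure of cells in 96-well plates, five concentrations, linear interpolation of endpoints. GI50: concentration for 50% inhibition of growth. TGI marks complete inhibition of growth.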 Where only a bound is given, the exact number is not on record here.

Data on 19 compounds can be found in PubChem BioAssay (NCI).

Usually TGI stands for the concentration at which net growth stops. A low value points to greater sensitivity of the cells. Turning to `Nc1nc([O-])c([I+]c2ccccc2)c(=O)[nH]1`, the total growth inhibition concentration (TGI) in test [1], in test [2], in test [3], in [4], in test [5] and in test [6] was over 100 µM in each case. For the same compound, the total growth inhibition concentration (TGI) in test [7], in test [8], in test [9], in test [10] and in test [11] was over 100 µM each time.
In the case of `COc1cccc2c1C(=O)c1c(O)c3c(c(O)c1C2=O)CC(O)(C(C)=O)CC3OC1CC([N+](C)(C)C)C(O)C(C)O1` (centres undefined), the TGI in test [1], in test [4], in test [5], in test [6], in test [7] and in test [8] was over 100 µM each time. Moreover, the concentration for total growth inhibition (TGI) in [12], in test [9], in test [10] and in test [11] was over 100 µM each time.
For `CC[N+](C)(C)c1ccc(C(=C2C=CC(=[N+](C)C)C=C2)c2ccc(N(C)C)cc2)cc1`, the TGI in test [1] was 17.5 µM; in [4], 9.37 µM; in test [5], over 100 µM; in test [6], 64.9 µM; in test [7], over 100 µM; in test [8], 32.4 µM. The concentration for total growth inhibition (TGI) was 56.8 µM in [12], 52.4 µM in test [9], over 100 µM in test [10] and 14 µM in [11].
Take `CCOC(=O)CCN1C(=O)c2ccc(NC(=O)C(=O)O)cc2S1(=O)=O`: the TGI in [1], in [2], in test [3], in test [4], in test [5] and in test [6] was over 100 µM in each case. The concentration for total growth inhibition (TGI) in test [12], in test [9], in [10] and in test [11] was over 100 µM in each case.
`Cc1ccc(-n2nnc3c(NNc4ccccc4)n[nH]c(=O)c32)cc1`: the TGI in test [1], in test [2], in test [3], in test [4], in test [5] and in test [6] was over 100 µM in each case. The TGI in [12], in [9], in test [10] and in test [11] was over 100 µM each time.
On to `COc1nc(N)nc2c1n(C)c[n+]2C`, for which the TGI in [1], in [3], in test [4], in test [5], in test [6] and in test [7] was over 100 µM throughout. Further, the concentration for total growth inhibition (TGI) in test [8], in [12], in test [9], in test [10], in [13] and in test [11] was over 100 µM throughout.
On to `N#Cc1c(-c2cccc(Br)c2)cc(-c2ccc(Cl)cc2)nc1N`, for which the TGI in [1] was 60.4 µM; in test [2] it was over 100 µM; in test [4] it was 30.4 µM; in test [5], 65.2 µM; in test [6], over 100 µM; in test [7], 34.6 µM. Moreover, the TGI in test [8] was 73.6 µM; in [12] it was 31.5 µM; in [10], 35.9 µM; in test [13], over 100 µM; in [11], 32.8 µM.
As to `CC12CC(=O)OC(Cc3ccccc31)O2` (centres undefined), the total growth inhibition concentration (TGI) in test [1], in [4], in test [6], in test [7], in test [8] and in [12] was over 100 µM throughout. The TGI in [9], in [10] and in test [11] was over 100 µM each time.
On to `CCOC(=O)c1nc2cc(F)c(F)cc2nc1NCc1cc(OC)c(OC)c(OC)c1`, for which the total growth inhibition concentration (TGI) in test [1], in [2], in test [4], in test [5], in test [6] and in [7] was over 100 µM throughout. For the same compound, the TGI in test [8], in test [12], in test [9], in test [10], in test [13] and in test [11] was over 100 µM each time.
On to `Cc1c2[nH]c3ccc(Br)cc3c2c(C)c2[nH]ccc(=O)c12`, for which the total growth inhibition concentration (TGI) stood at 25.6 µM in test [1]; 28.5 µM in test [4]; 30 µM in test [5]; 76.9 µM in [6]; 32.6 µM in test [8]; 33.8 µM in test [12]. Moreover, the total growth inhibition concentration (TGI) in test [9] is 34.8 µM; in test [10], 32.4 µM.
As to `O=S(=O)(O)c1cc(S(=O)(=O)O)c2c(N=Nc3ccccc3)c(O)ccc2c1`, the TGI in test [1], in test [3], in test [5], in test [6], in [7] and in test [8] was over 100 µM in each case. Further, the total growth inhibition concentration (TGI) in test [12], in [9], in test [10], in test [13] and in [11] was over 100 µM throughout.
As to `COC1=C(OC)C(=O)c2cc(SC)c(=O)c(SC)cc2C1=O`, the concentration for total growth inhibition (TGI) is over 100 µM in test [1]; 34.9 µM in test [4]; 50.9 µM in [6]; 16.8 µM in test [7]; 28.3 µM in test [8]; 15.5 µM in test [12]. Further, the TGI in [9] was determined as 26.7 µM; in test [10] it was 28.7 µM; in test [11], 38.7 µM.
A word on the GI50: it is the concentration at which growth is held to half of that of the control. Take `CC[C@@]1(O)C(=O)OCc2c1cc1n(c2=O)Cc2c-1nc1ccccc1c2C=Nc1ccc(N[C@@H]2c3cc4c(cc3[C@@H](c3cc(OC)c(O)c(OC)c3)[C@H]3C(=O)OC[C@@H]32)OCO4)cc1`: the concentration for 50% growth inhibition (GI50) in test [1] is 1.69 µM and 0.269 µM; in test [5], 0.545 µM and 0.141 µM; in [6], 0.0264 µM and 0.016 µM; in test [7] it was 0.127 µM and 0.0526 µM; in [12] it was 2.5 µM and 0.535 µM; in test [10], 0.0291 µM and 0.0101 µM. Also, the TGI in test [1] is > 44.3 µM and 6.24 µM; in [3], 18.4 µM and 4.06 µM; in test [4] it was over 100 µM; in test [6], 0.263 µM; in test [7], 2.25 µM and 0.546 µM; in test [8] it was over 100 µM. The TGI in test [9] is over 100 µM; in [11], over 48.8 µM.
With `CN1NC2=NCCN=C3NN(C)C(=NCCN=C1S2)S3`, the TGI in test [1], in [4], in test [5], in test [6], in test [7] and in [8] was over 100 µM throughout. Further, the TGI in [9], in test [10] and in [11] was over 100 µM in each case.
Take `CC1=CC(=C(c2ccc(N)c(C)c2)c2ccc(N)c(C)c2)C=CC1=N`: the TGI in test [1] is 12.8 µM; in test [4], 13.6 µM; in test [5], over 84.4 µM; in test [6], 18.3 µM; in test [7], 51.2 µM; in test [8], 17.8 µM. The concentration for total growth inhibition (TGI) in test [12] was determined as 7.48 µM; in [9], 19.2 µM; in [10], 4.31 µM; in test [11], 12.8 µM.
For the compound `CCOC(=O)C12C3CCC1C2C(=O)C3` (centres undefined), the TGI in test [1], in test [2], in test [3], in test [4], in test [5] and in [6] was over 100 µM in each case. Moreover, the TGI in test [7], in test [8], in test [12], in [9], in test [10] and in test [11] was over 100 µM in each case.
Regarding `COC(=O)CC(SCCO)SCCO`, the TGI in test [1], in test [3], in test [4], in test [5], in [6] and in test [7] was over 100 µM in each case. Besides, the TGI in [8], in [9] and in test [10] was over 100 µM each time.
For the compound `O=c1ccc(-c2ccc(-n3ccnc3)cc2)nn1CCO`, the concentration for total growth inhibition (TGI) in [1], in [2], in test [4], in [5], in test [6] and in test [7] was over 100 µM each time. Besides, the TGI in test [8], in test [9], in test [10] and in test [11] was over 100 µM in each case.
In the case of `Nc1ccc2c(c1)N(C(=O)CCCC(=O)N1CC(CCl)c3ccc(N)cc31)CC2CCl` (centres undefined), the TGI in test [1] is 3.99 µM; in [2] it was 12.9 µM; in test [3] it was 8.76 µM; in test [4] it was 0.286 µM; in test [5], over 41.3 µM; in test [6], over 11.2 µM. Also, the concentration for total growth inhibition (TGI) in test [7] is 0.582 µM; in test [8], 3.31 µM; in test [12] it was 1.43 µM; in [9] it was over 14.4 µM; in test [10] it was 9.67 µM; in test [11] it was over 26.2 µM.
